Results on 13 compounds are retold here after patent publication US20110144014A1, “CYTOKINE RECEPTOR MODULATORS AND USES THEREOF” (CENTRE HOSPITALIER UNIVERSITAIRE SAINTE-JUSTINE, priority 2005, published 2011).

Read-outs that look alike come from different tables or passages of the source. Where a SMILES comes first, the peptide text is derived from it. Where no end group is shown, it is not given here. [ ]: non-standard residue; d: D form. dOrn = NCCC[C@@H](N)C(=O)O; Orn = NCCC[C@H](N)C(=O)O

Assay [1] concerns the target T1, IL-1R/IL-1RacP (Homo sapiens, UniProt P14778+Q9NPH3).
T1 construct: TF-1 cells; endogenous in cells; host or cells: TF-1
T1 sequence (P14778 18-569): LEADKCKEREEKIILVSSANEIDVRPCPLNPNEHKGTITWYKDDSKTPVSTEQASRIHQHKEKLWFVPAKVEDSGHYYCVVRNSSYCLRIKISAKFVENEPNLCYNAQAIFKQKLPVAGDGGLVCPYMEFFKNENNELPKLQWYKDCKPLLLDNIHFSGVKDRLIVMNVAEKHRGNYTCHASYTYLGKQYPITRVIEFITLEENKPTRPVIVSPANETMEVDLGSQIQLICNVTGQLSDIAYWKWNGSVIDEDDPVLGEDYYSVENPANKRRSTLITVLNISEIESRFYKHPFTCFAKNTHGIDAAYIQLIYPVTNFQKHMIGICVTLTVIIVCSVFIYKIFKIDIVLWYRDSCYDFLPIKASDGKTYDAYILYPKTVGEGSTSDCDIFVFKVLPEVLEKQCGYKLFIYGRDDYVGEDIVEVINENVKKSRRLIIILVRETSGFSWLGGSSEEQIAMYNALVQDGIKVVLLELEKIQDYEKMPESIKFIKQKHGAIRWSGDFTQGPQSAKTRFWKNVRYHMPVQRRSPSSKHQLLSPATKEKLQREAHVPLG
T1 sequence (Q9NPH3 21-570): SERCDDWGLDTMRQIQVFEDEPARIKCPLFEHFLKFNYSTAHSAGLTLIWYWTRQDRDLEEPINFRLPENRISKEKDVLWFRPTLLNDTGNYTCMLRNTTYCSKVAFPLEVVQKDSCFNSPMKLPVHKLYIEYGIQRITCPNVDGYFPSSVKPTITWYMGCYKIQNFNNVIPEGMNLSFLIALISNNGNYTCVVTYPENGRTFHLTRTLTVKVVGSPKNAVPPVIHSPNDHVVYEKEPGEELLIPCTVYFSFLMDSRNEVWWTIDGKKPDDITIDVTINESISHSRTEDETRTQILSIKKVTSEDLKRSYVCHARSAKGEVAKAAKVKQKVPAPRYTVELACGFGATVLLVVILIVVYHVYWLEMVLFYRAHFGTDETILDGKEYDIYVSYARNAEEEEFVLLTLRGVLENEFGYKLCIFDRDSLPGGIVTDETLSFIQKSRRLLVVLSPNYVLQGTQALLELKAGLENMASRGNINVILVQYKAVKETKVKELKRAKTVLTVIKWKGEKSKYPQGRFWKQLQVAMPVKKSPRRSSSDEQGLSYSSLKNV
The assay can be described thus: IL-1β-induced proliferation in TF-1 cells. As to conditions: for activity relative to 101.113: Table 11. In kind it is cell-based.

Assay [2] deals with TNBS-induced colon inflammation. The assay can be described thus: TNBS rat model of inflammatory bowel disease. The format is in vivo. The procedure:
Colon inflammation was induced by intra-rectal/colon administration of the hapten trinitrobenzene sulphonic acid (TNBS) on male Sprague-Dawley rats (175-200 g) (Bouma, Nature Rev, 2003; Morris, Gastroenterology, 1989). Animals were anesthetized with isoflurane and TNBS dissolved in 50% ethanol (vol/vol). 120 mg/ml (TNBS) was administered into the colon (total volume of 0.25 ml per rat) using a polyethylene tube (PE50). The cannula was inserted at 8 cm from the anus and kept in place for at least 15 minutes after TNBS administration in order to prevent expulsion of the solution. Two hours prior to TNBS administration, the API-101 derivative API-101.10 (1.1 mg/kg) or 0.9% saline was administered intravenously via the caudal vein (total volume of 0.3 ml). […] A third group (control) was not injected with TNBS. Six days after administration of TNBS, rats were killed by CO2 inhalation. Day 6 was chosen as an endpoint because by day 7 spontaneous tissue regeneration begins and this can mask the therapeutic effect of the tested peptide or peptide derivative. Colon was removed and examined macroscopically (adhesions, ulcerations, discoloration and bleeding) and histologically (neutrophil infiltration, epithelial injury, crypt distortion and ulcerations) (Anthony et al., Int. J. Exp. Path. 76:215-224, 1995; Padol et al., Eur. J. of Gastroenterol. Hepatol. 12:257-265, 2000; Dieleman et al., […], 1997; Torres et al., Digestive Diseases and Sciences 44:2523-2529, 1999). Two animals per group were studied.
Histological transversal sections were cut at 4-6 cm from the proximal anal region and colored with the hematoxylin/eosin method. The TNBS model of inflammatory bowel disease reproduces the inflammatory characteristics and tissue injuries of Crohn's disease (e.g., in humans). Morphologically, the colon of the animals injected with TNBS presented thickening, edema, and discoloration of the intestinal wall indicating a significant inflammation. […] Histological features consisted of neutrophil infiltration into the epithelial layer and crypts, epithelial lining injury as well as the loss of crypts. […] The organization and integrity of the crypts in the API-101.10-treated colon is conserved even if there is still some inflammation (half the dose of API-101.10 was used as compared to the macroscopic analysis experiment).
Colon inflammation was induced by intra-rectal/colon administration of the hapten trinitrobenzene sulphonic acid (TNBS) as described above. Two hours prior to TNBS administration, peptides, peptidomimetics or 0.9% saline were administered intravenously (iv) via the caudal vein (various concentrations of mg/kg/d) (total volume of 0.3 ml). […] A third group (control) was not injected with TNBS. For intermittent administration, fifteen minutes after TNBS administration, 101.10 (0.25-1 mg/kg), 101.107 (0.2 mg/kg), 101.113 (0.05-1 mg/kg) were administered by intermittent intraperitoneal injection (ip). Also, these IL-1R antagonists were given twice a day (BID); Remicade® (anti-TNFα) (10 mg/kg) and dexamethasone (0.75 mg/kg) were administered intraperitoneally but only once a day (qd). The intrarectal administration (ir) of 101.10, 101.113 (1 and 2.5 mg/kg), and 5-ASA (50 mg/kg) was done one hour after TNBS administration, and twice a day, except for 5-ASA which is once a day. Finally, 101.10 (1-5 mg/kg) was also administered orally by gavage (po), twice a day. Forty-eight hours after administration of TNBS, rats were killed by CO2 inhalation. The colon was removed and assessed macroscopically (adhesions, ulcerations, discoloration and bleeding) and histologically (neutrophil infiltration, epithelial injury, crypt distortion and ulcerations). One to seven animals per group were studied, according to treatments. Myeloperoxidase (MPO) activity was measured on tissue lysates.

The target of assay [3] is IGF-1R (Homo sapiens, UniProt P08069). The assay can be described thus: IGF-1 induced proliferation of MCF-7 breast carcinoma cells (3H-thymidine). The format is cell-based. On the set-up: MCF-7 breast carcinoma cells; endogenous in cells; host or cells: MCF-7. As to conditions: MCF7; MCF-7 (breast cancer) cells; Table 5; read-out: Emax. Here is the method:
We also tested the effect IGF-1R antagonist peptides on IGF-1 induced proliferation in other cancer cell types (MCF-7 breast carcinoma cells, HepG2 hepatocarcinoma cells, and MDA-MB-231 breast adenocarcinoma cells). Different cancer cells were pre-incubated (45 min.) with different concentrations of peptides prior to stimulation with IGF-1 (50 ng/ml) (37° C.) for 24 hours; fetal calf serum was omitted 24 hours prior to stimulation with IGF-1 to avoid proliferative effects by other mitotic agents. ^3H-thymidine (1 μCi/ml) was then added for 24 hours, after which cells were washed three times with 5% cold TCA and lysed with 0.1N NaOH/0.1% Triton X-100. Radioactivity was measured with a scintillation counter. Experiments were repeated 3 times in duplicates (FIG. 15). […]

Setting [4] is: TF-1, IL-1β-induced, Table 10, read-out: Emax (%), proliferation in TF-1 cells (human).
The mark [5] stands for this setting: TF-1, Table 11, read-out: Emax (%), IL-1β-induced TF-1 proliferation.
The mark [6] stands for this setting: intermittent injection (ip), 0.75-qd mg/kg/d.
Where [7] appears, read: intrarectal administration, 50.0-qd mg/kg/d.
[8] abbreviates: continuous infusion (ip), 8.0 mg/kg/d.
Setting [9] is: intermittent injection (ip), 10.0-qd mg/kg/d.

Chain of IGF-1R (P08069 31-736 limits assumed): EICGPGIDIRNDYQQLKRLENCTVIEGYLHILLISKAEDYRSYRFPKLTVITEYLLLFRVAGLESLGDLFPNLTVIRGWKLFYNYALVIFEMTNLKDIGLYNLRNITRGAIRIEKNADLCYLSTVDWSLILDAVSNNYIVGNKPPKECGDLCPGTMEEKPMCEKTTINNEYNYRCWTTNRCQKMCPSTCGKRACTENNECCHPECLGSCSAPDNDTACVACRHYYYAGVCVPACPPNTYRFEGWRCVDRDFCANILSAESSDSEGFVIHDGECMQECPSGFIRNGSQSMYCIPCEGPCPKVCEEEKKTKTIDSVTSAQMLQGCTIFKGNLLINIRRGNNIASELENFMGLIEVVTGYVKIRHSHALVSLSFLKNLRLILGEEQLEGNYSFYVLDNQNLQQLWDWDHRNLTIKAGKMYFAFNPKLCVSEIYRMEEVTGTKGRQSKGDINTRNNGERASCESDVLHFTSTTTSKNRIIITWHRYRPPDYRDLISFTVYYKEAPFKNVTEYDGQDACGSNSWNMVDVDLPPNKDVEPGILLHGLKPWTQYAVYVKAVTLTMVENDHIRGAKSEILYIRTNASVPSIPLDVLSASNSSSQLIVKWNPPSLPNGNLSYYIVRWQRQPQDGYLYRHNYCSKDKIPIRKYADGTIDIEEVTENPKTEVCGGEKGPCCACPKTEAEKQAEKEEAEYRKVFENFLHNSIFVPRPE
Chain of IGF-1R (P08069 741-1367 limits assumed): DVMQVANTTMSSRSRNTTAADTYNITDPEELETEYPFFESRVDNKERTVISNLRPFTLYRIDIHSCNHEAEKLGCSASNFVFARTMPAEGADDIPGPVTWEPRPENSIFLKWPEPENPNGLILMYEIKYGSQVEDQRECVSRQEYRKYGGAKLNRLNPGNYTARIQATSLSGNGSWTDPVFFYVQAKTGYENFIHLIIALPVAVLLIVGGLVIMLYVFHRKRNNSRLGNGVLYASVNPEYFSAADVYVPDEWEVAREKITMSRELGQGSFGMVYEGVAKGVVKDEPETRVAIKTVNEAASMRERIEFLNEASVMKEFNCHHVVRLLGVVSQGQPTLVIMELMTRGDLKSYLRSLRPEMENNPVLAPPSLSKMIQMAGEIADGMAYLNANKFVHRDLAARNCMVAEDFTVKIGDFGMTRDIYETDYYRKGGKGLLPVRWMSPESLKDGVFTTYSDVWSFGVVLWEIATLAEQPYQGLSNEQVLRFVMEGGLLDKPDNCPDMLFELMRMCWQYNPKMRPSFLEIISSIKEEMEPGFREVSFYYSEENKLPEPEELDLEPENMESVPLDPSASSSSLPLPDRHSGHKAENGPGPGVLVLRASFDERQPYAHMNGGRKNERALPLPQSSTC

With `CC(C)C[C@@H](NC(=O)[C@@H](CCC(=O)O)NC(=O)[C@H]1CCCN1C(=O)[C@H](NC(=O)[C@@H](Cc1ccc(O)cc1)NC(=O)[C@H](N)CCCNC(=N)N)[C@H](C)O)C(=O)O` [API-101.113, RYTPEL], the Emax in assay [1] (setting [4]) is 100%. Still for that read-out and setting: the figure for `CC(C)C[C@@H](NC(=O)[C@@H](CCC(=O)O)NC(=O)[C@H]1CCCN1C(=O)[C@H](NC(=O)[C@@H](Cc1ccc(O)cc1)NC(=O)[C@H](N)CCCN)[C@H](C)O)C(=O)N[C@H](C)C(=O)O` [API-101.115, XYTPELA (X = Ornithine)] (H-[dOrn][dY][dT][dP][dE][dL][dA]-OH) is 100%; for `CC(C)C[C@@H](NC(=O)[C@@H](CCC(=O)O)NC(=O)[C@H]1CCCN1C(=O)[C@H](NC(=O)[C@@H](Cc1c[nH]c2ccccc12)NC(=O)[C@H](N)CCCNC(=N)N)[C@H](C)O)C(=O)N[C@H](C)C(=O)O` [API-101.116, RWTPELA] it is 75%. For the compound `CC(C)C[C@H](NC(=O)[C@H](CCC(=O)O)NC(=O)[C@@H]1CCCN1C(=O)[C@@H](NC(=O)[C@H](Cc1ccc(O)cc1)NC(=O)[C@@H](N)CCCN)[C@@H](C)O)C(=O)O` [API-101.126, XYTPEL (X = Ornithine)] (H-[Orn]YTPEL-OH), in assay [1] (setting [5]), the Emax turned out to be 0%. Consider `CC(C)C[C@@H](NC(=O)[C@@H](CCC(=O)O)NC(=O)[C@H]1CCCN1C(=O)[C@H](NC(=O)[C@@H](Cc1c[nH]c2ccccc12)NC(=O)[C@H](N)CCCNC(=N)N)[C@H](C)O)C(=O)O` [API-101.128, RWTPEL] (H-[dR][dW][dT][dP][dE][dL]-OH; N-terminus and C-terminus assumed), for which, in assay [1] (setting [5]), the Emax was found to be 100%. Besides, the “activity relative to 101.113” value in assay [1] was “relatively decreased”. On the same counts, the results for `CC(C)C[C@@H](NC(=O)[C@@H](CCC(=O)O)NC(=O)[C@H]1CCCN1C(=O)[C@H](NC(=O)[C@@H](Cc1ccccc1)NC(=O)[C@H](N)CCCNC(=N)N)[C@H](C)O)C(=O)O` [API-101.132, RFTPEL] (H-[dR][dF][dT][dP][dE][dL]-OH; N-terminus and C-terminus assumed) are 35% and “relatively decreased”.

As for `CC(C)C[C@@H](NC(=O)[C@@H](CCC(=O)O)NC(=O)[C@H]1CCCN1C(=O)[C@H](NC(=O)[C@@H](Cc1ccc(O)cc1)NC(=O)[C@H](N)CCCNC(N)=O)[C@H](C)O)C(=O)O` [API-101.134, XYTPEL (X = Citrulline)], the Emax in assay [1] (setting [5]) is 10%. Also, the “activity relative to 101.113” value in assay [1] was “little or no activity”. For `CC(C)C[C@@H](NC(=O)[C@@H](CCC(=O)O)NC(=O)[C@H]1CCCN1C(=O)[C@H](NC(=O)[C@@H](Cc1ccc(O)cc1)NC(=O)[C@@H](N)CCCNC(=N)N)[C@H](C)O)C(=O)O` [API-101.135, *RYTPEL], the Emax in assay [1] (setting [5]) is 63%. Turning to `C[C@@H]1C[C@H]2[C@@H]3CCC4=CC(=O)C=C[C@]4(C)[C@@]3(F)[C@@H](O)C[C@]2(C)[C@@]1(O)C(=O)CO` [Dexamethasone, dexamethasone, reference compound], in assay [2] (setting [6]), the “Histologic evaluation (median score)” value is on record as 3 (Medium ulcer (5-10 crypts)), the “MPO (% of TNBS + Saline)” value was 60 % of TNBS + Saline and the “Macroscopic evaluation (median score)” value is 0.87 median score. Consider `Nc1ccc(O)c(C(=O)O)c1` [Peptide 5-ASA, 5-ASA, reference compound], for which, in assay [2] (setting [7]), the “Histologic evaluation (median score)” value worked out at 3.3 median score, the “MPO (% of TNBS + Saline)” value is given as 49 % of TNBS + Saline and the “Macroscopic evaluation (median score)” value is listed as 1.5 median score. On to “Kineret: Amgen drug, a selective blocker of IL-1; commercial analog of IL-1R antagonist (IL-Ra) [reference compound]”, for which, in assay [2] (setting [8]), the “Histologic evaluation (median score)” value is 2 (Small ulcer (<5 crypts)) and the “MPO (% of TNBS + Saline)” value is recorded as 63 % of TNBS + Saline. With RTVLSNL [APG-206.8, RTVLSNL], in assay [3], the Emax worked out at 100%.

“Remicade ®: anti-TNFα [reference compound]”: in assay [2] (setting [9]), the “Histologic evaluation (median score)” value was determined as 2.5 median score, the “MPO (% of TNBS + Saline)” value is on record as 88 ± 41 % of TNBS + Saline and the “Macroscopic evaluation (median score)” value is on record as 0.5 median score.
